System: bacteria
Test: Zone-of-inhibition test, overall outcome in words
Assay type: cell-based
Description: A standard zone-of-inhibition study was performed on the lotion and wound dressing exemplars described above. The zone-of-inhibition test involved placing a quantity of the prepared lotion or wound dressing in a petri dish, which had been cultured with a particular bacterium. The bacteria used in this test included: B. subtilis, B. vulgatus, C. albicans, E. coli, P. aeruginosa, and S. aureus. In each of these tests, the diameter of the prepared lotion or wound dressing placed in the cultured petri dishes was measured and recorded at the outset of the test. On the first, second, and fifth days thereafter the diameter of the zone of inhibition was measured and recorded. The zone of inhibition in this test was defined as the area surrounding the prepared lotion or wound dressing on the petri dish which was uninhabited by the bacteria of the specific culture. Table 1 reports data for the prepared lotion zone-of-inhibition test and Table 2 reports data for the prepared wound dressing zone-of-inhibition test.
Similar results are observed for a zone-of-inhibition test when a yeast-derived β-glucan is used in a medical composition as described herein.

β-glucan
antimicrobial effect in the zone-of-inhibition test (in words) (overall outcome of the zone-of-inhibition tests): no inhibition of bacteria
effect on bacterial growth (in words) (β-glucan as a microbial nutrient): promotes bacterial growth

Source: patent US20060240083A1, “ANTIMICROBIAL AND IMMUNOSTIMULATING COMPOSITION” (BRENNEN MEDICAL, LLC, priority 2000, published 2006)
